Structures can show the parent of a compound that is named as a salt.
Legend:
[1] = Mass balance/recovery, metabolite profile, pharmacokinetics and safety of radiolabeled CYT-0387; assay type: in vivo, human; conditions: for share of circulating radioactivity: plasma
Protocol: CYT-0387 is a selective small molecule inhibitor of Janus kinase 1 and 2 (JAK1/JAK2) currently under investigation to treat myelofibrosis. This study evaluated the mass balance/recovery, metabolite profile, pharmacokinetics, and safety of radiolabeled CYT-0387 in humans.
Six healthy individuals (subjects) received a single oral dose of 200 mg CYT-0387 containing ˜100 μCi of [^14C]-CYT-0387. Blood samples were collected up to 21 days or until plasma radioactivity in 2 consecutive samples was below detection limit or urine and feces sampling was discontinued. Urine/feces samples were collected up to 21 days or until ≧90% administered dose was recovered in feces and urine and radioactivity in 2 consecutive sampling intervals were ≦1% administered dose. Plasma concentrations of CYT-0387 and metabolites were measured using LC-MS/MS and total radioactivity assessed by liquid scintillation counting. Metabolite profiling was performed in select urine, feces, and plasma samples. Safety assessments were performed throughout the study.

[2] = Solid form hygroscopicity and stability; assay type: physicochemical; conditions: exposed to moisture
Protocol: Dynamic Vapor Sorption: The hygroscopicity of N-(cyanomethyl)-4-(2-(4-morpholinophenylamino)pyrimidin-4-yl)benzamide dihydrochloride monohydrate Form II was evaluated at room temperature using a dynamic vapor sorption (DVS) instrument (TGA Q5000 TA Instruments, New Castle, Del.). Water adsorption and desorption were studied as a function of relative humidity (RH) over the range of 0 to 90% at room temperature. The humidity in the chamber was increased from the initial level 50% RH) to 60% RH and held until the solid and atmosphere reached equilibration. The equilibrium test was continued until passed or expired after 10 hours. At this point, RH was raised 10% higher and the process was repeated until 90% RH was reached and equilibrated. During this period, the water sorption was monitored. For desorption, the relative humidity was decreased in a similar manner to measure a full sorption/desorption cycle. All experiments were operated in dm/dt mode (mass variation over time) to determine the equilibration endpoint. Approximately 4 mg of solid CYT-0387 was used. Data analysis was conducted using Universal Analysis 2000 Version 4.7A (TA Instruments, New Castle, Del., USA).

Row | hygroscopicity and physical stability [2] | SMILES | share of circulating radioactivity [1] [%] | excreted in feces [1] | excreted in urine ([1]; urine)
1 | – | NC(=O)CNC(=O)c1ccc(-c2ccnc(Nc3ccc(N4CCOCC4=O)cc3)n2)cc1 [Compound M8, N-(2-amino-2-oxoethyl)-4-(2-((4-(3-oxomorpholino)phenyl)amino)pyrimidin-4-yl)benzamide] | 5.8 | – | –
2 | – | O=C(O)c1ccc(-c2ccnc(Nc3ccc(N4CCOCC4=O)cc3)n2)cc1 [Compound M14, 4-(2-((4-(3-oxomorpholino)phenyl)amino)pyrimidin-4-yl)benzoic acid] | – | 21.4 % of the dose | –
3 | – | CC(=O)Nc1ccc(Nc2nccc(-c3ccc(C(=O)NCC#N)cc3)n2)cc1 [Compound M20, 4-(2-((4-acetamidophenyl)amino)pyrimidin-4-yl)-N-(cyanomethyl)benzamide] | 2.3 | – | –
4 | – | N#CCNC(=O)c1ccc(-c2ccnc(Nc3ccc(N4CCOCC4=O)cc3)n2)cc1 [Compound M21, N-(cyanomethyl)-4-(2-{[4-(3-oxomorpholin-4-yl)phenyl]amino}pyrimidin-4-yl)benzamide] | 64.2 | 12.7 % of the dose | 11.5 % of the dose
5 | hygroscopic and physically unstable | N#CCNC(=O)c1ccc(-c2ccnc(Nc3ccc(N4CCOCC4)cc3)n2)cc1 [N-(cyanomethyl)-4-(2-(4-morpholinophenylamino)pyrimidin-4-yl)benzamide (CYT-0387) dihydrochloride anhydrous Form I] | – | – | –
